One data set concerns the target T1, recombinant human 5-HT2A (Homo sapiens, UniProt P28223).
T1 construct: purchased Perkin Elmer ES-313-M400UA
Put plainly: Determination of 5-HT2A binding ([3H]-Ketanserin radioligand, membranes). The following applies: human 5-HT2A membranes, [3H]-Ketanserin 1.75 nM. As to the method: Membrane preparation from recombinant human 5-HT2A cell line (Cat no. ES-313-M400UA) and radio ligand Ketanserin Hydrochloride, [Ethylene-^3H]-(R-41468) (Cat no. NET791250UC) were purchased from Perkin Elmer. All other reagents used in buffer preparation were purchased from Sigma. The final ligand concentration was 1.75 nM; non-specific determinant was 1-NP [10 μM] and 5-HT2A membrane protein (5 μg/well). 1-NP was used as a positive control. Reactions were carried out in 67 mM Tris pH 7.6 containing 0.5 mM EDTA buffer for 60 minutes at 25° C. Reaction was stopped by rapid filtration followed by six washes of the binding mixture using 96 well harvest plate (Millipore Cat no. MSFBNXB50) pre coated with 0.33% polyethyleneimine. The plate was dried and the bound radioactivity collected on the filters was determined by scintillation counting using MicroBeta TriLux. Radio ligand binding in the presence of non-labeled compound was expressed as a percent of the total binding and plotted against the log concentration of the compound. Ki values were determined using a nonlinear, iterative curve-fitting computer program of Graph pad Prism 4 software.

Data set [1] in a line: Rodent pharmacokinetic study. It counts as in vivo, male Wistar rats. The following applies: male, Wistar, plasma, rat. How it is done:
Male Wistar rats (260±50 grams) were used as experimental animals. Animals were housed individually in polypropylene cage. Two days prior to study, male Wistar rats were anesthetized with isoflurane for surgical placement of jugular vein catheter. Rats were randomly divided for oral (3 mg/kg) and intravenous (1 mg/kg) dosing (n=3/group) and fasted overnight before oral dosing (p.o.). However, rats allocated to intravenous dosing food and water was provided ad libitum.
At pre-determined point, blood was collected through jugular vein and replenished with an equivalent volume of normal saline. Collected blood was transferred into a labeled eppendorf tube containing 10 μL, of heparin as an anticoagulant. Typically blood samples were collected at following time points: 0.08, 0.25, 0.5, 1, 2, 4, 6, 8, and 24 hours post dose. Blood was centrifuged at 4000 rpm for 10 minutes. Plasma was separated and stored frozen at −80° C. until analysis. The concentrations of the test compounds were quantified in plasma by qualified LC-MS/MS method using suitable extraction technique. The test compounds were quantified in the calibration range around 1-1000 ng/mL in plasma. Study samples were analyzed using calibration samples in the batch and quality control samples spread across the batch.
Pharmacokinetic parameters Cmax, AUC1, T1/2, Clearance and Bioavailability (F) were calculated by non-compartmental model using standard non-compartmental model by using Phoenix WinNonlin 6.2 or 6.4 version Software package.

Data set [2] can be described thus: Rodent brain penetration study. It is filed as in vivo, male Wistar rats. The following applies: male, Wistar, brain and plasma, po; rat, 3 mg/kg, p.o., brain-plasma ratio; read-out: Single dose rat brain penetration (Cb/Cp). How it is done:
Male Wistar rats (260±40 grams) were used as experimental animals. Three animals were housed in each cage. Animals were given water and food ad libitum throughout the experiment and maintained on a 12 hours light/dark cycle.
Brain penetration was determined in discrete manner in rats. One day prior to dosing day, male Wistar rats were acclimatized and randomly grouped according to their weight. At each time point (0.50, 1 and 2 hours) n=3 animals were used.
The test compounds were suitably preformulated and administered orally at (free base equivalent) 3 mg/kg. Blood samples were collected via cardiac puncture by using isoflurane anesthesia. The animals were sacrificed to collect brain tissue. Plasma was separated and brain samples were homogenized and stored frozen at −20° C. until analysis. The concentrations of the test compounds in plasma and brain were determined using LC-MS/MS method.
The test compounds were quantified in plasma and brain homogenate by qualified LC-MS/MS method using suitable extraction technique. The test compounds were quantified in the calibration range of 1-1000 ng/mL in plasma and brain homogenate. Study samples were analyzed using calibration samples in the batch and quality control samples spread across the batch. Extent of brain-plasma ratio (Cb/Cp) was calculated.

For another data set, the system named is Male Wistar rats. Put plainly: Object recognition task model. It is filed as in vivo. The following applies: rat, 0.1 mg/kg, p.o. As to the method:
The cognition-enhancing properties of compounds of this invention were estimated using an animal model of cognition i.e., object recognition task.
Male Wistar rats (˜230-280 grams) were used as experimental animals. Four animals were housed in each cage. Animals were kept on 20% food deprivation before one day and given water ad libitum throughout the experiment and maintained on a 12 hours light/dark cycle. The rats were habituated to individual arenas for […] in the absence of any objects.
One group of 12 rats received vehicle (1 mL/kg) orally and another set of animals received compound of the formula (I) orally thirty minutes prior to familiar (T1) and choice trial (T2).
The experiment was carried out in a 50×50×50 cm open field made up of acrylic. During the familiarization phase (T1), the rats were placed individually in the open field for 3 minutes, in which two identical objects (plastic bottles, 12.5 cm height×5.5 cm diameter) covered in yellow masking tape alone (a1 and a2) were positioned in two adjacent corners (10 cm from the walls). After 24 hours of the (T1) trial, the same rats were placed in the same arena as they were placed in T1 trial. During the choice phase (T2) rats were allowed to explore the open field for 3 minutes in presence of one familiar object (a3) and one novel object (b) (Amber color glass bottle, 12 cm high and 5 cm in diameter). During the T1 and T2 trial, explorations of each object (defined as sniffing, licking, chewing or having moving vibrissae whilst directing the nose towards the object at a distance of less than 1 cm) were recorded separately by stopwatch.
T1 is the total time spent exploring the familiar objects (a1+a2).
T2 is the total time spent exploring the familiar object and novel object (a3+b).

Data set [3] is described as follows: Non-clinical toxicology, repeated dose toxicity study in rat. It counts as in vivo. The following applies: rat, female rats. How it is done: (§1) The safety of the example 1 of instant invention and comparator example of U.S. Pat. No. 7,378,415 were evaluated in repeated dose toxicity study in rat.
(§2) Female rats were used as experimental animals for evaluating the toxicity profile of example 1 of instant invention and the comparator example of U.S. Pat. No. 7,378,415.
(§3) During the study, female rats were dosed at incremental doses for minimum of 4 days. Toxicity assessment was done on the mortality, clinical observation, change in the body weight, feed consumption, clinical and anatomical pathology. Systemic exposures were also estimated for both of the compounds. All quantitative variables are compared with control group using one-way ANOVA followed by Dunnet's post-hoc test on GraphPad Prism Software version 4, 2003.

Another data set deals with Female rats. The description is as above. It is filed as in vivo. The following applies: repeated dose toxicity. As to the method:
as §1, §2, §3

Each structure is given as a SMILES string.

T1 sequence (P28223 whole entry): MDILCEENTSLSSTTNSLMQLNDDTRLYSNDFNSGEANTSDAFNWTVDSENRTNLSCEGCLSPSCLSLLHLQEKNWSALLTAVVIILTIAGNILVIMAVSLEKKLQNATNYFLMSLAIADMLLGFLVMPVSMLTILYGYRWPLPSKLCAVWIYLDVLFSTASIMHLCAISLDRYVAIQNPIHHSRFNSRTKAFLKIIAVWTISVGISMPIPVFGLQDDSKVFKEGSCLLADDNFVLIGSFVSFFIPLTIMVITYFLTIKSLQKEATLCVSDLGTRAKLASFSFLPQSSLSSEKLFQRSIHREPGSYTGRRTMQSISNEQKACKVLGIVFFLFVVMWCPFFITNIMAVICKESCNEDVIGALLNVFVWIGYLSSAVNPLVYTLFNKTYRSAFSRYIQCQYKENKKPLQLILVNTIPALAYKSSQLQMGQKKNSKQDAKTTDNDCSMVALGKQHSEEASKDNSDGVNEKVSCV

As to `Cl.O=S(=O)(c1ccccc1)c1ccc2c(c1)OCCN2C1CCNCC1F` (single isomer, unassigned; peak iii) [Example 1, 7-Phenylsulfonyl-4-(3-fluoropiperidin-4-yl)-3,4-dihydro-2H-benzo[1,4]oxazine hydrochloride (Peak III)], the Ki on recombinant human 5-HT2A turned out to be 130 nM. In data set [1] (intravenous (bolus), 1 mg/kg), the AUC(0-t) is 412 ± 37 ng·h/mL, the clearance is 40 ± 3 mL/min/kg and the half-life was 4.5 ± 0.1 h. Also, the bioavailability in data set [1] (oral (gavage) 3 mg/kg vs intravenous 1 mg/kg, read-out: F (Bioavailability)) was 81 ± 1%. In data set [1] (oral (gavage), 3 mg/kg), this compound showed an AUC(0-t) of 1000 ± 15 ng·h/mL, a Cmax of 84 ± 14 ng/mL and a half-life of 5.6 ± 0.9 h. Besides, the Kp in data set [2] came out at 0.78 ± 0.2. Also, in the data set with Male Wistar rats (choice trial T2), the “Exploration time mean ± S.E.M, Familiar object” value stood at 7.03 ± 1.1 s and the “Exploration time mean ± S.E.M, Novel object” value came out at 12.16 ± 0.72 s. Besides, the Inference result in the data set with Male Wistar rats (object recognition task) is “Active”. Besides, in data set [3] (in vivo, 4-Day repeat tox), the NOAEL at 4 days is 300 mg/kg. For the same compound, the MTD in data set [3] (in vivo, repeated incremental doses, read-out: Maximum Tolerated Dose) was no less than 300 mg/kg. Moreover, in data set [3] (plasma, repeated dose toxicity study, read-out: AUC (systemic exposure in toxicity study)), the AUC was 38100 ng·h/mL. For the same compound, in data set [3] (plasma, repeated dose toxicity study, read-out: Cmax (systemic exposure in toxicity study)), the Cmax worked out at 2420 ng/mL. Besides, in the data set on Female rats, the “Findings (mortality)” value is on record as “No death up”. Besides, the “Findings (mortality)” value with Female rats (listed as example 1) is “no deaths were observed at doses as high as 300 mg/kg”.

As a reminder, the Ki is a measure of affinity in units of concentration, obtained from inhibition or displacement. Usually AUC(0-t) stands for the area under the concentration-time curve up to a stated or last time point. One may read the clearance as the volume of plasma or blood freed of the substance per unit of time. Lower therefore signals a low capacity for elimination. By half-life is commonly meant how long it takes for the measured level to halve. A higher half-life goes with slow decline. Usually bioavailability stands for dose-corrected exposure relative to a reference, in per cent. By Cmax is commonly meant the maximum level reached in the sampled fluid or tissue. The NOAEL is the highest dose or exposure tested at which no adverse effect was seen. The term AUC denotes concentration integrated over time.
